Reference: EP4763841A1, “PYRIDAZINONE COMPOUND AND USE THEREOF” (Xi'an Xintong Pharmaceutical Research Co., Ltd., priority 2023, dated 2025)
Marks after values point to notes of the source that are not given here.

Legend:
THRα = THRα (Homo sapiens, UniProt P10827); experiment: HTRF test of agonist-induced SRC3-2 coactivator peptide recruitment to THRα-LBD; assay type: biochemical
Protocol: 1. Experiment of binding of compounds to THRβ and THRα
Test principle: The effect of test compounds on THRβ and THRα was tested by using a method of HTRF. An MAb Anti GST-Eu cryptate antibody binds to GST-tagged THRα-LBD (or THRβ-LBD), while Streptavidin-XL665 binds to a biotin-labeled SRC3-2 coactivator peptide. […] At the same time, the resulting decrease in the distance between XL665-labeled SRC3-2 and an Eu-anti-GST antibody increases a THRFRET signal. The agonistic capacity at this target was assessed by the effect of compounds on the activity of THRα-LBD (THRβ-LBD) at different concentrations.
• (1) a 1×reaction solution was prepared. • (2) Preparation of compounds: the compound test starting concentration was 20 µM, 3-fold dilution was performed, 10 concentrations were set, and duplicate testing was set for each concentration. 100-fold dilution was performed in a 384-well Source plate to a corresponding solution with a final concentration, and then 200 nL of the solution was transferred to a 384-well reaction plate with Echo550 to be tested. 200 nL of 100% DMSO and a test article were respectively transferred to Min and Max wells. • (3) A 2×protein solution was prepared from the 1×reaction solution. • (4) A 4×SRC3-2 solution was prepared from the 1×reaction solution. • (5) A mixed solution of 4×GST-Eu cryptate and XL665 was prepared from the 1×reaction solution. • (6) 10 µl of the 2×protein solution was added to each well of the reaction plate, centrifugation was performed at 1000 rpm for 1 min, and incubation was performed at room temperature for 30 min. • (7) 5 µl of the 4×SRC3-2 solution was added to each well of the reaction plate, and centrifugation was performed at 1000 rpm for 1 min. • (8) 5 µL of the mixed solution of 4×GST-Eu cryptate and XL665 was added to each well of the reaction plate, centrifugation was performed at 1000 rpm for 1 min, and incubation was performed at 25°C. • (9) A fluorescence signal was read by using EnVision.
THRα test procedures were the same as above.

[1] = Comparison of compound metabolites by human liver microsome incubation (LC-MS/MS); assay type: in vitro ADME; settings: 10 µM compound, human liver microsome 1.0 mg/mL, β-NADPH 1.0 mM, 37°C, 60 min
Protocol: The purpose of this experiment was to evaluate the comparison of the content of major metabolites of human liver microsome incubated compounds.
Sample treatment: a sample was precipitated with acetonitrile (ACN) containing 0.1% formic acid in a ratio of 1:2, and further centrifuged. A supernatant was dried with a nitrogen flow. A residue was reconstituted in […] of 10% ACN and 90% H2O containing 0.1% formic acid. […] of the reconstituted material was injected into an LC-MS/MS system for analysis.

NASH model of B-DIO mice = experiment: Efficacy test in NASH model of B-DIO mice (HFD + CCL4); assay type: in vivo; settings: for area proportion of lipid droplets in the liver (oil red O) compared with the model group G2: Day 26, result in words (FIG. 8); for liver fibrosis (Sirius red) compared with the model group G2: Day 26, result in words (FIG. 9)
Description: An objective of this experiment was to evaluate the pharmacodynamics of compounds of the present invention by using an NASH model of B-DIO mice.
Five C57BL/6 mice on normal diet were assigned to an experimental group G1, and 25 B-DIO mice were randomly assigned to five experimental groups according to the body weight, with 5 mice in each group.
The day of grouping was Day-1, intraperitoneal injection was started on Day 0 in the groups G2-G6 for CCL4 modeling, the concentration of a modeling agent is 0.2 µl/g, the modeling frequency was twice a week, and administration was started on Day 0.
The body weight was measured twice a week after grouping. At the end of the experiment (Day 26), the mice were fasted for 4 h, and non-anticoagulated blood of the mice in the groups G1-G6 was collected and centrifuged, and a serum was taken for blood biochemical testing. Livers in the groups G1-G6 were collected and weighed, 20 mg of the liver was weighed for determination of TC and TG, and the remaining liver was placed in formalin for fixation for pathological observation.

[2] = liver, Day 26, 0.3 mg/kg I.G. Q.D., HFD+CCL4, mean±standard error
[3] = liver, Day 26, 1 mg/kg I.G. Q.D., HFD+CCL4, mean±standard error
[4] = liver, Day 26, 2 mg/kg I.G. Q.D., HFD+CCL4, mean±standard error
[5] = serum, Day 26, 1 mg/kg I.G. Q.D., HFD+CCL4, mean±standard error

THRα, sequence (P10827 148-410 isoform P10827-2 limits assumed, other chains not shown): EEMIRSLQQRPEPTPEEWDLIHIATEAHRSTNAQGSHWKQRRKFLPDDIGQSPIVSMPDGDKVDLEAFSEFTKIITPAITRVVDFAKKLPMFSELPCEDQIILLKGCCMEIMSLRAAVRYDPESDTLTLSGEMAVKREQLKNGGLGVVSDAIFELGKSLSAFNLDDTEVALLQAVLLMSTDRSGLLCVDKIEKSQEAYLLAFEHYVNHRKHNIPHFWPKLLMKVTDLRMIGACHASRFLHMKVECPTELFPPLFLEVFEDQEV

## [2H]C([2H])([2H])C(c1c(C)c(Oc2c(Cl)cc(-n3nc(CF)c(=O)[nH]c3=O)cc2Cl)n[nH]c1=O)C([2H])([2H])[2H] [Compound 6]
THRα; HTRF, starting concentration 20 µM, 3-fold dilution, 10 concentrations, duplicate
  EC50: > 5 µM
THRα; result in words
  agonistic activity on THRα: weak agonistic activity on THRα
[1]
  Monooxidized metabolite percent content (%): 3.0%
[1]; listed as compound 6
  Monooxidized metabolite percent content (%): 3%
NASH model of B-DIO mice; G4, 0.3 mg/kg
  area proportion of lipid droplets in the liver (oil red O) compared with the model group G2: decreased significantly
  liver fibrosis (Sirius red) compared with the model group G2: certain improvement effects on liver fibrosis
NASH model of B-DIO mice; G4-G6 (0.3, 1, 2 mg/kg) versus Resmetirom 3 mg/kg, result in words
  effects of reducing liver fat accumulation and inhibiting liver fibroplasia compared with Resmetirom (G3): better effects of reducing liver fat accumulation and inhibiting liver fibroplasia than Resmetirom
NASH model of B-DIO mice; G5, 1 mg/kg
  area proportion of lipid droplets in the liver (oil red O) compared with the model group G2: decreased significantly
  liver fibrosis (Sirius red) compared with the model group G2: certain improvement effects on liver fibrosis
NASH model of B-DIO mice; G6, 2 mg/kg
  area proportion of lipid droplets in the liver (oil red O) compared with the model group G2: decreased significantly
  liver fibrosis (Sirius red) compared with the model group G2: certain improvement effects on liver fibrosis
NASH model of B-DIO mice; group G4, 0.3 mg/kg, Day 26
  decrease of liver TC compared with the model group G2: 24.9%
NASH model of B-DIO mice; group G6, 2 mg/kg, Day 26
  decrease of liver TG compared with the model group G2: 35.9%
NASH model of B-DIO mice; [2]
  TC: 46.76 ± 1.53 µmol/g
  TG: 59.02 ± 2.79 µmol/g
NASH model of B-DIO mice; [3]
  TC: 46.35 ± 1.39 µmol/g
  TG: 54.34 ± 2.45 µmol/g
NASH model of B-DIO mice; [4]
  TC: 44.99 ± 1.87 µmol/g
  TG: 54.34 ± 3.54 µmol/g
NASH model of B-DIO mice; serum, Day 26, 0.3 mg/kg I.G. Q.D., HFD+CCL4, mean±standard error
  TG: 1.03 ± 0.06 mM
NASH model of B-DIO mice; [5]
  ALT (U/L): 1080.58±88.36 U/L
  AST (U/L): 501.72±42.35* *** U/L
  TG: 1.06 ± 0.07 mM
NASH model of B-DIO mice; serum, Day 26, 2 mg/kg I.G. Q.D., HFD+CCL4, mean±standard error
  TG: 1.06 ± 0.09 mM
